Experiments:
[1] = tested on: xylene-induced swelling of mouse ears; assay: Xylene-induced swelling of mouse ears; type: in vivo, Kunming mice
Protocol: […] KM mice, weighing 18-22 g, were randomly grouped, with ten mice in each group. The groups include a model group, a positive control group (Indomethacin, 10 mg/kg), a ginsenoside Rd low-dose group (5 mg/kg), and a ginsenoside Rd high-dose group (10 mg/kg). After 30 min of gavage administration of mice (the model group was administrated with the equal volume of 0.5% sodium carboxymethylcellulose by gavage), 0.03 ml of xylene was evenly applied to both sides of the right ear of each mouse in each group to cause inflammations on both sides, and the left ear of the mouse was not applied as a control. After 4 h, the mouse was killed by dislocation of cervical vertebra, the two ears of the mouse were cut off along the auricle, round ear slices of the same size (a diameter of 6 mm) were taken at the same position of the left and right ears and weighed respectively, a mass difference of the two ear slices was used as an ear swelling degree, and a swelling inhibition rate was calculated.

[2] = tested on: mice infected with COVID-19 Delta virus; assay: Lung histopathology of mice infected with COVID-19 Delta virus; type: in vivo, hACE2 transgenic C57BL/6 mice; conditions: number of mice with this degree (four per group); 5 mg/kg gavage once a day, five days
[3] = tested on: COVID-19 Delta virus-infected mice; assay: IL-1β and MCP-1 expression (RT-qPCR) in lung homogenates of COVID-19 Delta virus-infected mice; type: in vivo, hACE2 transgenic C57BL/6 mice; conditions: mRNA, blank group 1.00; 5 mg/kg gavage; Day 5 of infection
[4] = tested on: mice with acute lung injury; assay: Inflammatory factors (ELISA) in lung tissue and alveolar lavage fluid of mice with LPS acute lung injury; type: in vivo, Balb/c mice; conditions: 5 mg/kg intraperitoneal 1 h before LPS; 24 h after modeling
Protocol: Balb/c male mice, weighing 20-22 g, were randomly divided into five groups according to body weights, with eight mice in each group: a blank control group (propylene glycol-0.5% carboxymethylcellulose sodium), a model group (LPS, 15 mg/kg), a ginsenoside Rd low-dose group (10 mg/kg), a ginsenoside Rd high-dose group (20 mg/kg), and a Dexamethasone group (5 mg/kg). Mice in each group were intraperitoneally injected; after 1 h of administration, except for the blank control group, the mice in each group were intratracheally instilled with 20 μg of LPS for modeling; and the blank control group was intratracheally instilled with an equal volume of PBS.
After 1 h of administration, a mouse ALI model was established; each mouse was intraperitoneally injected with sodium pentobarbital at 30 mg/kg, anesthetized and fixed on an operating table dorsally; skin preparation was carried out on the neck; the skin was incised to expose the trachea; 20 μg of LPS was instilled into the trachea using a microglass syringe; and then the mouse was gently rotated head up on the operating table, such that the instilled liquid was evenly distributed in the mouse lungs, and the skin incision was sutured.
After 24 h of modeling, anesthetized mice were intraperitoneally injected with sodium pentobarbital at 30 mg/kg; lung tissues of the mice were taken and rinsed repeatedly in pre-cooled normal saline; the lung tissues were blood-removed, wiped with filter paper, weighed, and added with normal saline according to a ratio of 1:9 (W:V=1 g:9 ml); a tissue homogenate was prepared with a homogenization machine under an ice water bath; and a supernatant of mouse lung tissue homogenate was taken.
The mouse was anesthetized, and the trachea was separated; the whole lung was lavaged with 0.5 ml of pre-cooled normal saline, stayed for 1 min, and slowly pumped back with a syringe, and this process was repeated three times; and BLAF was collected, and centrifuged for 15 min at 4° C. and 1600 rpm/min.
In strict accordance with the operating instructions of an enzyme-linked immunosorbent assay kit (ELISA), the contents of TNF-α, IL-1β, IL-6 and IL-18 in the supernatant of mouse lung tissue homogenate and the BLAF supernatant were detected.

[5] = tested on: Chronic Obstructive Pulmonary Disease in Rats; assay: Serum TNF-α and IL-8 in rats with chronic obstructive pulmonary disease (LPS + smoking); type: in vivo, SD rats; conditions: 2.5 mg/kg gavage
Protocol: After adaptive feeding (20-25° C., a humidity of 50-60%) for 1 week, the rats were randomly divided into a blank group, a model group, a positive control group, a ginsenoside Rd high-dose group, and a ginsenoside Rd low-dose group, with ten rats in each group.
Model group: on the Day 1 and Day 14, each rat was intraperitoneally injected with 10% chloral hydrate (300 mg/kg) for anesthesia; the head was fixed in a low position; the glottis was exposed; lipopolysaccharide was quickly injected into the trachea; and the rat was kept upright, and swung left and right for 10-20 s, such that the lipopolysaccharide was evenly distributed in the two lungs. On the Days 2-13, and 15-28, the lungs were smoked in a closed organic glass box for 30 min every day, with 15 cigarettes per day.
Positive control group: the animal was anesthetized, and intratracheally injected with lipopolysaccharide, wherein smoking conditions and time were the same as those of the model group; and after tracheal injection of lipopolysaccharide for two weeks, the animal was administrated with Simvastatin by gavage (2.5 mg/kg), and killed after six weeks, and serum was collected.
In accordance with the instructions, the levels of TNF-α and IL-8 in the serum were detected by enzyme-linked immunosorbent assay. The data was expressed as x±s, p<0.05, which meant that it was statistically significant.

[6] = tested on: Chronic Obstructive Pulmonary Disease in Rats; assay: Lung pathomorphology of rats with chronic obstructive pulmonary disease; type: in vivo, SD rats; conditions: po, 2.5 mg/kg
[7] = 10 mg/kg gavage 30 min before xylene, 4 h after xylene

COc1ccc2c(c1)c(CC(=O)O)c(C)n2C(=O)c1ccc(Cl)cc1 [Indomethacin, reference compound]
Ear mass difference [1, 7]: 10.87 ± 0.53 mg
Swelling degree [1, 7]: 6.48 ± 1.89 (mg) (%)
inhibition at 10 mg/kg ([1]; Mus musculus, po, ear swelling, 10 mg/kg gavage, read-out: Inhibition rate): 40.3%

C[C@@H]1C[C@H]2[C@@H]3CCC4=CC(=O)C=C[C@]4(C)[C@@]3(F)[C@@H](O)C[C@]2(C)[C@@]1(O)C(=O)CO [Dexamethasone, reference compound]
Interstitial pneumonia Mild [2]: 3
Interstitial pneumonia Moderate [2]: 1
Interstitial pneumonia Severe [2]: 0
Pulmonary hemorrhage Mild [2]: 3
Pulmonary hemorrhage Moderate [2]: 1
Pulmonary hemorrhage Severe [2]: 0
IL-1β expression level in lung homogenate [3]: 9.26 ± 10.27
MCP-1 expression level in lung homogenate [3]: 6.27 ± 8.20
IL-1β in alveolar lavage fluid [4]: 58.56 ± 16.24 ng/L
IL-1β in lung tissue [4]: 48.76 ± 12.76 ng/L
IL-6 in alveolar lavage fluid [4]: 36.89 ± 6.16 ng/L
IL-6 in lung tissue [4]: 49.73 ± 16.08 ng/L
IL-18 in alveolar lavage fluid [4]: 56.38 ± 9.40 ng/L
IL-18 in lung tissue [4]: 49.06 ± 15.41 ng/L
TNF-α in alveolar lavage fluid [4]: 222.58 ± 60.91 ng/L
TNF-α in lung tissue [4]: 58.64 ± 10.65 ng/L

CCC(C)(C)C(=O)O[C@H]1C[C@@H](C)C=C2C=C[C@H](C)[C@H](CC[C@@H]3C[C@@H](O)CC(=O)O3)[C@H]21 [Simvastatin, reference compound]
IL-8 in serum [5]: 22.65 ± 11.56
TNF-α in serum [5]: 11.71 ± 13.27
Epithelial cell necrosis Mild [6]: 7
Epithelial cell necrosis Moderate [6]: 3
Epithelial cell necrosis Severe [6]: 0
Interstitial inflammatory cell infiltration Mild [6]: 6
Interstitial inflammatory cell infiltration Moderate [6]: 4
Interstitial inflammatory cell infiltration Severe [6]: 0
